This note sets out measurements from ChEMBL document CHEMBL3046770, “1-(6-Chloronicotinyl)-2-nitroimino-imidazolidines and Related Compounds as Potential New Insecticides” (Biosci Biotechnol Biochem, 1992).

In brackets after ≈: the same amount, converted by molar mass. Activity calls are given as the source filed them. The rule behind the calls is not given here.

In general, LD50 refers to the dose at which mortality reaches 50%. For orientation: LC50 means the concentration lethal to half of the exposed cells or organisms.

The first data set deals with Nephotettix cincticeps. Briefly: Insecticidal activity against Nephotettix cincticeps (green rice leafhopper) infested on rice leaf assessed as increase in mortality at 1000 ppm after 5 days.
Details: not given
It is filed as functional, organism-based.
As to `CCOC(=O)/C=C1\NCCN1Cc1ccc(Cl)nc1`, the outcome was inactive.

Consider `N#C/C=C1\NCCN1Cc1ccc(Cl)nc1`, for which the result was inactive.

Test system in the next data set: not listed separately
Briefly: Toxicity in Rattus norvegicus (rat) […]. It is filed as organism-based. The note with it: in vivo.
As to `O=[N+]([O-])NC1=NCCN1Cc1ccc(Cl)nc1` [IMIDACLOPRID], the LD50 was above 5000 mg/kg.

A further data set has as its system Nephotettix cincticeps. Briefly: Insecticidal activity against Nephotettix cincticeps (green rice leafhopper) infested on rice leaf assessed as mortality after 5 days. It is filed as functional.
Details: not given
In the case of `O=C(c1ccccc1)N1CCN(Cc2ccc(Cl)nc2)/C1=N/[N+](=O)[O-]`, the LC90 is recorded as 0.32 ppm.

For `O=[N+]([O-])/N=C1\NCCN1Cc1ccc(Cl)nc1` [IMIDACLOPRID], the LC90 is listed as 0.32 ppm.

Consider `CCCN1CCN(Cc2ccc(Cl)nc2)/C1=N/[N+](=O)[O-]`, for which the LC90 came out at 0.32 ppm.

Turning to `N=C1NCCN1Cc1ccc(Cl)nc1` [DESNITROIMIDACLOPRID], the LC90 is 200 ppm.

Turning to `CCCCN1CCN(Cc2ccc(Cl)nc2)/C1=N/[N+](=O)[O-]`, the LC90 was found to be 1.6 ppm.

For `C#CCN1CCN(Cc2ccc(Cl)nc2)/C1=N/[N+](=O)[O-]`, the LC90 is 0.32 ppm.

Take `CCN1CCN(Cc2ccc(Cl)nc2)/C1=N/[N+](=O)[O-]`: the LC90 is reported as 8 ppm.

For the compound `O=[N+]([O-])/C=C1\NCCN1Cc1ccc(Cl)nc1`, the LC90 is on record as 0.32 ppm.

In the case of `C=CCN1CCN(Cc2ccc(Cl)nc2)/C1=N/[N+](=O)[O-]`, the LC90 is 0.32 ppm.

As to `CN1CCN(Cc2ccc(Cl)nc2)/C1=N/[N+](=O)[O-]`, the LC90 is recorded as 1.6 ppm.

For the compound `O=C1NCCN1Cc1ccc(Cl)nc1`, the LC90 is recorded as 1000 ppm.

As to `COP(=S)(OC)Oc1ccc([N+](=O)[O-])c(C)c1` [FENITROTHION], the LC90 is recorded as 200 ppm.

For `N#CC(C#N)=C1NCCN1Cc1ccc(Cl)nc1`, the LC90 came out at 40 ppm.

As to `CC(C)N1CCN(Cc2ccc(Cl)nc2)/C1=N/[N+](=O)[O-]`, the LC90 was 40 ppm.

Turning to `N#CN1CCN(Cc2ccc(Cl)nc2)/C1=N/[N+](=O)[O-]`, the LC90 turned out to be 0.32 ppm.

In the case of `CC(=O)N1CCN(Cc2ccc(Cl)nc2)/C1=N/[N+](=O)[O-]`, the LC90 was 0.32 ppm.

For the compound `CCCCCN1CCN(Cc2ccc(Cl)nc2)/C1=N/[N+](=O)[O-]`, the LC90 came to 40 ppm.

Test system in another data set: not listed separately
Briefly: Toxicity in po dosed Rattus norvegicus (rat). It is filed as organism-based. The note with it: in vivo.
Consider `O=[N+]([O-])NC1=NCCN1Cc1ccc(Cl)nc1` [IMIDACLOPRID], for which the 50% lethal dose (LD50) worked out at 450 mg/kg.

Test system in the next data set: not listed separately
Briefly: Toxicity in Leuciscus idus (golden orfe) after 96 hr. It is filed as organism-based. The conditions noted are these: in vivo.
Consider `O=[N+]([O-])NC1=NCCN1Cc1ccc(Cl)nc1` [IMIDACLOPRID], for which the LC50 at 96 h was found to be 237 µg/mL (≈ 927 µM).

A further data set relates to Lepidoptera. Briefly: Insecticidal activity against Lepidoptera. It is filed as functional, organism-based.
Details: not given
As to `O=[N+]([O-])/N=C1\NCCN1Cc1ccc(Cl)nc1` [IMIDACLOPRID], the result was inactive.
